Assay results as given in ChEMBL document CHEMBL4811279, “N-Substituted pyrrolopyrimidines and purines as p90 ribosomal S6 protein kinase-2 (RSK2) inhibitors” (Bioorg Med Chem, 2021).

Molecular target: Ribosomal protein S6 kinase alpha-3 (Homo sapiens) (UniProt P51812)
Assay: Inhibition of RSK2 (unknown origin) using Ulight-rpS6 as substrate at 10 uM incubated for 1 hr in presence of ATP by TR FRET assay

Ribosomal protein S6 kinase alpha-3 (Homo sapiens), sequence (P51812 whole entry): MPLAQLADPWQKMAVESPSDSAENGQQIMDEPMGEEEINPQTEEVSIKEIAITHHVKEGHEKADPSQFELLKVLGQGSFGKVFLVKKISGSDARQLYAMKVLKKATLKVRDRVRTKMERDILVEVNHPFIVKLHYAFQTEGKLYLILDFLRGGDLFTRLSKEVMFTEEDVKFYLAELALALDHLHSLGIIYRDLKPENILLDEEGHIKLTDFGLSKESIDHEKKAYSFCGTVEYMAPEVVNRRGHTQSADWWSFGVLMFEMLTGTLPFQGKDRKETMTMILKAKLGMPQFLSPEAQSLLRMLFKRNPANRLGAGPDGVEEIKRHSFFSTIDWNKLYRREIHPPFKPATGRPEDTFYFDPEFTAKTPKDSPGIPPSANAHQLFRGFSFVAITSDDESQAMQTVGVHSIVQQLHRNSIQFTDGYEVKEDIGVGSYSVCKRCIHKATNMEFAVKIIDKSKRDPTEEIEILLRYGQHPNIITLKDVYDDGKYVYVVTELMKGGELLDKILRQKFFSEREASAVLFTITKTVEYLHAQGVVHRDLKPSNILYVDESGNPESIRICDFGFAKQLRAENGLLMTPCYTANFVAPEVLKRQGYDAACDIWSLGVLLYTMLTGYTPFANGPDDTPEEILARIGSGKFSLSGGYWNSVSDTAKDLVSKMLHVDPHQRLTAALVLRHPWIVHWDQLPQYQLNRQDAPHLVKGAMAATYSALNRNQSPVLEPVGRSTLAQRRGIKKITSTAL

inhibition [%]	SMILES
67	Oc1c(F)cc(Nc2ncc3nc[nH]c3n2)cc1F
49	Oc1c(F)cc(Nc2ncc3ncn(-c4ccc(-c5ccccc5)cc4)c3n2)cc1F
42	Oc1c(F)cc(Nc2ncc3ncn(-c4ccc(OCc5ccccc5)cc4)c3n2)cc1F
77	Oc1c(F)cc(Nc2ncc3cc[nH]c3n2)cc1F
63	Oc1c(F)cc(Nc2ncc3ncn(-c4cccc(OCc5ccccc5)c4)c3n2)cc1F
